The text below walks through data of PubChem BioAssay AID652241 (Broad Institute, 2013).

The experiment deals with Virion infectivity factor (Human immunodeficiency virus type 1 group M subtype B (isolate BH10)) + Virion infectivity factor (Human immunodeficiency virus type 1 group M subtype B (isolate BRU/LAI)) + Virion infectivity factor (Human immunodeficiency virus type 1 group M subtype B (isolate PCV12)) + Virion infectivity factor (Human immunodeficiency virus type 1 group M subtype B (isolate HXB2)) (UniProt P69720+P69721+P69722+P69723). The experiment can be described thus: Vif multimerization inhibitor potency, dose response, imaging, HEK293T, cherry-picks (AID 652241).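 Also: imaged cell signal that rises when Vif self-association is disrupted.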 The conditions noted are these: 24 h.
Chain of Virion infectivity factor (Human immunodeficiency virus type 1 group M subtype B (isolate BH10)) + Virion infectivity factor (Human immunodeficiency virus type 1 group M subtype B (isolate BRU/LAI)) + Virion infectivity factor (Human immunodeficiency virus type 1 group M subtype B (isolate PCV12)) + Virion infectivity factor (Human immunodeficiency virus type 1 group M subtype B (isolate HXB2)) (P69720 whole entry, looked up): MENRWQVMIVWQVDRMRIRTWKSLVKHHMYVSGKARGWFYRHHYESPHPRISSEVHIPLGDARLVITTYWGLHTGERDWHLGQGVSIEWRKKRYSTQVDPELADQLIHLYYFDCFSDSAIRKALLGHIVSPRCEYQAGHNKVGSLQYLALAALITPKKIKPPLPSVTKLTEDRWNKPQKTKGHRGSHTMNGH
Chain of Virion infectivity factor (Human immunodeficiency virus type 1 group M subtype B (isolate BH10)) + Virion infectivity factor (Human immunodeficiency virus type 1 group M subtype B (isolate BRU/LAI)) + Virion infectivity factor (Human immunodeficiency virus type 1 group M subtype B (isolate PCV12)) + Virion infectivity factor (Human immunodeficiency virus type 1 group M subtype B (isolate HXB2)) (P69721 whole entry, looked up): as the sequence (P69720 whole entry, looked up) above
Chain of Virion infectivity factor (Human immunodeficiency virus type 1 group M subtype B (isolate BH10)) + Virion infectivity factor (Human immunodeficiency virus type 1 group M subtype B (isolate BRU/LAI)) + Virion infectivity factor (Human immunodeficiency virus type 1 group M subtype B (isolate PCV12)) + Virion infectivity factor (Human immunodeficiency virus type 1 group M subtype B (isolate HXB2)) (P69722 whole entry, looked up): as the sequence (P69720 whole entry, looked up) above
Chain of Virion infectivity factor (Human immunodeficiency virus type 1 group M subtype B (isolate BH10)) + Virion infectivity factor (Human immunodeficiency virus type 1 group M subtype B (isolate BRU/LAI)) + Virion infectivity factor (Human immunodeficiency virus type 1 group M subtype B (isolate PCV12)) + Virion infectivity factor (Human immunodeficiency virus type 1 group M subtype B (isolate HXB2)) (P69723 whole entry, looked up): as the sequence (P69720 whole entry, looked up) above

In general, AC50 refers to the concentration giving half of the maximal activity seen.

Inconclusive results are not listed. The source made the active and inactive calls.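 The calls were made as follows: active = fitted curve reaches activity 50 in the expected rising direction at or below the top valid tested dose; inconclusive = no clear call, values can overlap the other calls; inactive = activity in the wrong direction, and the rest.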 Where only a bound is given, the exact number is not on record here.

Consider `O=C(Nc1ccc2oc(-c3ccc4ccccc4c3)nc2c1)c1cccs1`, for which, where the note is “at 6.8 µM (top of the series)”, the “activity, higher = inhibition” value was “inactive”.
For the compound `O=C(NC1(C(F)(F)F)Oc2ccc(Cl)cc2O1)N1CCC2(CC1)OCCO2` (stereo not drawn), the AC50 is 7.65 µM.
Regarding `CCOC(=O)c1cc(-c2ccccc2)sc1NC(=O)COC(=O)c1cccc(S(N)(=O)=O)c1`, the AC50 is 16.1 µM.
Regarding `CCn1c(CC(=O)Nc2ccccc2)nnc1SCC(=O)Nc1nnc(C)s1`, the “activity, higher = inhibition” value (at 19.5 µM (top of the series)) was “inactive”.
Regarding `COc1cc(OC)cc(C(=O)NC(C(=O)Nc2ccc3c(c2)OCO3)C(C)C)c1` (stereo not drawn), the “activity, higher = inhibition” value (at 19.5 µM (top of the series)) was “inactive”.
In the case of `CCN1C(=O)c2cccc3c(S(=O)(=O)Nc4nc(C)cs4)ccc1c23`, the AC50 is 15.1 µM.
As to `O=C(O)CCCCn1c(SCc2ccccc2Cl)nc2ccsc2c1=O`, under “at 19.5 µM (top of the series)”, the “activity, higher = inhibition” value is “inactive”.
Same read-out and setting: as for `CCOc1ccc2c(C)c(C(=O)O)oc2c1OCC`, the entry is “inactive”; as for `N#CC(C(=O)NCCc1ccccc1)c1nc2ccccc2nc1N1CCOCC1` (stereo not drawn), “inactive”; as for `COc1ccccc1C(=O)COC(=O)C1(C)CC1(Cl)Cl` (stereo not drawn), “inactive”.
Regarding `Cn1c(=O)[nH]c(=O)c2c1nc([N+](=O)[O-])n2Cc1ccccc1`, the AC50 is 5.03 µM.
Consider `COc1cc2ccccc2cc1C(=O)Nc1ccc(Cl)cn1`, for which the AC50 was 13 µM.
`CCN(C(=O)COc1ccc(C)cc1OC)c1cccc2ccccc12`: the “activity, higher = inhibition” value (at 19.5 µM (top of the series)) is “inactive”.
Turning to `COc1cc(C(=O)NCCc2cn3ccc(C)cc3n2)cc(OC)c1OC`, where the note is “at 19.5 µM (top of the series)”, the “activity, higher = inhibition” value is “inactive”.
For the compound `NCCCC[C@H](N[C@@H](CCc1ccccc1)C(=O)O)C(=O)N1CCC[C@H]1C(=O)O`, under “at 19.5 µM (top of the series)”, the “activity, higher = inhibition” value was “inactive”.
On the same count and under the same terms, for `Cc1ccc(C(C)C)c(OCC#CCN2CCOCC2)c1` the value was “inactive”; for `Cc1c(NC(=O)c2cc3ccccc3oc2=O)c(=O)n(-c2ccccc2)n1C`, “inactive”.
For the compound `CCC(=O)Nc1ccc(-c2cc3ccccc3oc2=O)cc1`, for the setting “at 19.5 µM (top of the series)”, the “activity, higher = inhibition” value is “inactive”.
Consider `COc1ccc(NC(=O)Cn2nnc(C(=O)Nc3ccccc3C)c2N)cc1`, for which the “activity, higher = inhibition” value (at 19.5 µM (top of the series)) is “inactive”.
Turning to `COc1cc(NC(=O)NCc2ccco2)ccc1-c1ccc(NC(=O)NCc2ccco2)cc1OC`, the “activity, higher = inhibition” value (at 19.5 µM (top of the series)) was “inactive”.
Regarding `COc1cc(-c2cnc3c(NC=O)cc(-c4ccccc4)cn23)cc(OC)c1OC`, the concentration at half-maximal activity (AC50) was 2.45 µM.
Take `COc1ccc(C=C2CS(=O)(=O)CC(=Cc3ccc(OC)cc3)C2=O)cc1`: the “activity, higher = inhibition” value (at 19.5 µM (top of the series)) was “inactive”.
`COc1ccccc1Oc1coc2cc(OCC(N)=O)ccc2c1=O`: the “activity, higher = inhibition” value (at 19.5 µM (top of the series)) is “inactive”.
As to `COc1ccc(NC(=O)c2ccccc2NC(=O)CSc2ccc(C)cc2)cc1`, under “at 19.5 µM (top of the series)”, the “activity, higher = inhibition” value was “inactive”.
For `COc1ccc(-c2cc(C(=O)Nc3ccc4c(c3)OCO4)no2)cc1`, the “activity, higher = inhibition” value (at 19.5 µM (top of the series)) is “inactive”.
For the compound `COC(CNC(=O)C1CCN(C(=O)c2cc3oc(C)cc3n2Cc2c(F)cccc2Cl)CC1)OC`, the “activity, higher = inhibition” value (at 19.5 µM (top of the series)) was “inactive”.
Turning to `COc1cccc(NC(=O)CSc2nnc(Cc3ccc(OC)c(OC)c3)o2)c1`, where the note is “at 19.5 µM (top of the series)”, the “activity, higher = inhibition” value was “inactive”.
Take `COC(=O)c1cc(Cl)c(NC(=O)c2cc3ccccc3o2)cc1OC`: the “activity, higher = inhibition” value (at 19.5 µM (top of the series)) was “inactive”.
As for `COC(=O)N1C(=O)[C@](c2ccc(Cl)cc2)(C(C)C)N1C(=O)OC`, the “activity, higher = inhibition” value (at 19.5 µM (top of the series)) is “inactive”.
The same measure, in the same setting: for `Cc1nn2c(COc3ccc(NC(=O)c4ccccc4Cl)cc3)nnc2c2ccccc12` the value was “inactive”.
In the case of `Cc1cnc(NC(=O)CN2CCN(c3ccccn3)CC2)s1`, the AC50 was 9.23 µM.
Turning to `CC(=O)Nc1cc(NC(=O)C2C3C=CC(C3)C2C(=O)O)ccc1Cl` (stereo not drawn), the “activity, higher = inhibition” value (at 19.5 µM (top of the series)) is “inactive”.
Consider `COc1cccc(CNc2ccc3c(c2)CCC3)c1`, for which the “activity, higher = inhibition” value (at 19.5 µM (top of the series)) was “inactive”.
Take `Oc1ccc(-c2nc(-c3ccc(O)c(O)c3)cs2)cc1`: the AC50 is 9.83 µM.
As for `CCOc1ccccc1NC(=O)Cn1nnc(C(=O)NCc2cccs2)c1N`, the half-maximal activity concentration (AC50) was 5.28 µM.
For the compound `Cc1ccc(-c2cc(C(=O)NCc3ccccn3)c3ccccc3n2)cc1C`, where the note is “at 19.5 µM (top of the series)”, the “activity, higher = inhibition” value is “inactive”.
Take `COc1ccc2cc(CCNS(=O)(=O)c3ccc(NC(C)=O)cc3)c(=O)[nH]c2c1`: the “activity, higher = inhibition” value (at 19.5 µM (top of the series)) is “inactive”.
On to `CCOc1ncccc1C(=O)OCc1ccccc1`, for which the “activity, higher = inhibition” value (at 19.5 µM (top of the series)) is “inactive”.
Take `CC(C)(C)NC(=O)CN(Cc1ccc(F)cc1)C(=O)Cn1nnc(-c2ccc(F)cc2)n1`: the “activity, higher = inhibition” value (at 19.5 µM (top of the series)) was “inactive”.
In the case of `CCOC(=O)C1(Cc2cccc(OC)c2)CCN(CCO)CC1`, the “activity, higher = inhibition” value (at 19.5 µM (top of the series)) is “inactive”.
With `CCOC(=O)c1nc(Nc2ccc(C(=O)OC)cc2)c2ccccc2n1`, under “at 19.5 µM (top of the series)”, the “activity, higher = inhibition” value is “inactive”.
As to `CCOc1c(C(N)=O)c(-c2ccccc2)c2c(=O)[nH]c3ccccc3n12`, the AC50 is > 19.5 µM (inactive).
Take `COc1ccc(-c2nc(CS(=O)(=O)CC(=O)NCCc3ccccc3)c(C)o2)cc1`: the “activity, higher = inhibition” value (at 6.8 µM (top of the series)) is “inactive”.
